In ChEMBL document CHEMBL1133589, “N-3-substituted imidazoquinazolinones: potent and selective PDE5 inhibitors as potential agents for treatment of erectile dysfunction” (J Med Chem, 2000) one finds IC50 ratio and IC50 data, which are given here for four compounds.

Assay [1] is described as follows: Relative inhibition of PDE4 of rat kidney and PDE5 of human platelets.
The target in assay [2] is cGMP-specific 3',5'-cyclic phosphodiesterase (Homo sapiens, UniProt O76074). The experiment in a line: Inhibition of phosphodiesterase type 5 (PDE5) of human platelets.
A short description of assay [3]: Relative inhibition of PDE2 of rat kidney and PDE5 of human platelets.
Assay [4] is described as follows: Relative ihibition of bovine retina PDE6 and PDE5 of human platelets.
A short description of assay [5]: Relative inhibition of bovine heart PDE1 and PDE5 of human platelets.

A word on the IC50: it is the point on the concentration scale where inhibition reaches its midpoint.

Structures are written as SMILES. Some results are limits rather than exact numbers.

`CCCOc1ccccc1-c1nc(O)c2cc3[nH]cnc3cc2n1`: the IC50 ratio in assay [1] is 100; in assay [3] it was 360; in assay [4], 1; in assay [5] it was 200. Further, in assay [2], the IC50 amounted to 44 nM.
`CCCOc1ccc(S(=O)(=O)N2CCN(C)CC2)cc1-c1nc(O)c2cc3[nH]cnc3cc2n1`: the IC50 ratio in assay [1] was found to be 1600; in assay [3], 1300; in assay [4] it was 2; in assay [5] it was 90.
With `CCCOc1ccc(C(N)=O)cc1-c1nc(O)c2cc3c(cc2n1)ncn3Cc1ccc(F)cc1`, the IC50 ratio in assay [1] was 4200; in assay [3] it was greater than 100000; in assay [4] it was 60; in assay [5], greater than 100000. Also, the IC50 in assay [2] worked out at 0.48 nM.
On to `CCCOc1ccc(S(=O)(=O)N2CCN(C)CC2)cc1-c1nc(O)c2cc3c(cc2n1)ncn3Cc1ccccc1`, for which the IC50 ratio in assay [1] is 600; in assay [3], greater than 10000; in assay [4], 20; in assay [5], 3400. This compound came in with an IC50 in assay [2] of 5.3 nM.
